{
  "source": "PubChem BioAssay AID212",
  "about": "(DTP/NCI, 2004)",
  "tested_on": "BDF1 mice, colon carcinoma 38 sc, T/C %",
  "assay": "NCI In Vivo Anticancer Drug Screen. Data for tumor model Colon Carcinoma 38 (subcutaneous) in B6D2F1 (BDF1) mice",
  "settings": "endpoint: median tumor weight (est.), higher = larger tumour",
  "procedure,_shortened": "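Compound antitumor activity was assessed in mice carrying transplantable tumors. Survival or tumor size was recorded, and each value is the treated-group measurement divided by that of the vehicle-treated control group.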",
  "key": {"[1]": {"settings": "dose: 100.0 mg/kg/injection, schedule: Q07DX002 (ip), vehicle: Klucel (hydroxypropylcellulose) (HPC)"}, "[2]": {"settings": "dose: 200.0 mg/kg/injection, schedule: Q07DX002 (ip), vehicle: Klucel (hydroxypropylcellulose) (HPC)"}, "[3]": {"settings": "dose: 400.0 mg/kg/injection, schedule: Q07DX002 (ip), vehicle: Klucel (hydroxypropylcellulose) (HPC)"}, "[4]": {"settings": "dose: 1600.0 mg/kg/injection, schedule: Q07DX002 (ip), vehicle: Klucel (hydroxypropylcellulose) (HPC)"}, "[5]": {"settings": "dose: 25.0 mg/kg/injection, schedule: Q07DX002 (ip), vehicle: saline with Tween-80"}},
  "note": "Values joined by “and” are separate entries in the source; they are usually repeats but may differ in a detail not shown here. Equal entries are not always repeated. Results filed as inconclusive are left out.",
  "data": [
    {"molecule": "CN(C1=NS(=O)(=O)N=C(N(C)c2ccccc2)O1)c1ccccc1", "values": [
      {"measurement": "T/C", "setting": "dose: 12.5 mg/kg/injection, schedule: Q07DX003 (ip), vehicle: Klucel (hydroxypropylcellulose) (HPC)", "value": "103 % of control"},
      {"measurement": "T/C", "setting": "dose: 25.0 mg/kg/injection, schedule: Q07DX003 (ip), vehicle: Klucel (hydroxypropylcellulose) (HPC)", "value": "68 % of control"},
      {"measurement": "T/C", "setting": "[1]", "value": "119 % of control"},
      {"measurement": "T/C", "setting": "dose: 100.0 mg/kg/injection, schedule: Q07DX003 (ip), vehicle: Klucel (hydroxypropylcellulose) (HPC)", "value": "101 % of control"},
      {"measurement": "T/C", "setting": "[2]", "value": "110 % of control"},
      {"measurement": "T/C", "setting": "dose: 200.0 mg/kg/injection, schedule: Q07DX003 (ip), vehicle: Klucel (hydroxypropylcellulose) (HPC)", "value": "113 % of control"},
      {"measurement": "T/C", "setting": "[3]", "value": "162 % of control"},
      {"measurement": "T/C", "setting": "dose: 400.0 mg/kg/injection, schedule: Q07DX003 (ip), vehicle: Klucel (hydroxypropylcellulose) (HPC)", "value": "113 % of control"},
      {"measurement": "T/C", "setting": "dose: 800.0 mg/kg/injection, schedule: Q07DX002 (ip), vehicle: Klucel (hydroxypropylcellulose) (HPC)", "value": "104 % of control"},
      {"measurement": "T/C", "setting": "[4]", "value": "159 % of control"}
    ]},
    {"molecule": "Cc1ccc(S(=O)(=O)OCOS(=O)(=O)c2ccc(C)cc2)cc1", "values": [
      {"measurement": "T/C", "setting": "[1]", "value": "61 % of control"},
      {"measurement": "T/C", "setting": "[2]", "value": "104 % of control"},
      {"measurement": "T/C", "setting": "[3]", "value": "80 % of control and 93 % of control"},
      {"measurement": "T/C", "setting": "[4]", "value": "19 % of control and 27 % of control"}
    ]},
    {"molecule": "CCN(Cc1ccc(Cl)c(Cl)c1)c1ccc2nc(N)nc(N)c2c1C", "values": [
      {"measurement": "T/C", "setting": "dose: 6.25 mg/kg/injection, schedule: Q07DX002 (ip), vehicle: distilled water + Tween-80", "value": "165 % of control"},
      {"measurement": "T/C", "setting": "dose: 12.5 mg/kg/injection, schedule: Q07DX002 (ip), vehicle: distilled water + Tween-80", "value": "206 % of control"},
      {"measurement": "T/C", "setting": "dose: 100.0 mg/kg/injection, schedule: Q07DX002 (ip), vehicle: distilled water + Tween-80", "value": "46 % of control"}
    ]},
    {"molecule": "COC1=C(OC)C(=O)C(SC/C=C(\\C)CCCC(C)CCCC(C)CCCC(C)C)=CC1=O", "note": "(configuration not stated)", "values": [
      {"measurement": "T/C", "setting": "[5]", "value": "55 % of control"},
      {"measurement": "T/C", "setting": "dose: 100.0 mg/kg/injection, schedule: Q07DX002 (ip), vehicle: saline with Tween-80", "value": "116 % of control"},
      {"measurement": "T/C", "setting": "dose: 200.0 mg/kg/injection, schedule: Q07DX002 (ip), vehicle: saline with Tween-80", "value": "86 % of control"},
      {"measurement": "T/C", "setting": "dose: 400.0 mg/kg/injection, schedule: Q07DX002 (ip), vehicle: saline with Tween-80", "value": "102 % of control"}
    ]},
    {"molecule": "O=C(O)Cc1cccc2c(=O)c(-c3ccccc3)c(-c3ccccc3)oc12", "values": [
      {"measurement": "T/C", "setting": "dose: 25.0 mg/kg/injection, schedule: Q07DX002 (ip), vehicle: Klucel (hydroxypropylcellulose) (HPC)", "value": "90 % of control"},
      {"measurement": "T/C", "setting": "dose: 50.0 mg/kg/injection, schedule: Q07DX002 (ip), vehicle: Klucel (hydroxypropylcellulose) (HPC)", "value": "92 % of control"}
    ]},
    {"molecule": "CC1OC(=O)C(C(C)C)NC(=O)C(C(C)C)OC(=O)C(C(C)C)NC(=O)C(C)OC(=O)C(C(C)C)NC(=O)C(C(C)C)OC(=O)C(C(C)C)NC(=O)C(C)OC(=O)C(C(C)C)NC(=O)C(C(C)C)OC(=O)C(C(C)C)NC1=O", "note": "(configuration not stated)", "values": [
      {"measurement": "T/C", "setting": "dose: 2.5 mg/kg/injection, schedule: Q07DX003 (ip), vehicle: saline with Tween-80", "value": "71 % of control and 90 % of control"},
      {"measurement": "T/C", "setting": "dose: 5.0 mg/kg/injection, schedule: Q07DX003 (ip), vehicle: saline with Tween-80", "value": "79 % of control"},
      {"measurement": "T/C", "setting": "dose: 40.0 mg/kg/injection, schedule: Q07DX003 (ip), vehicle: saline with Tween-80", "value": "37 % of control"}
    ]},
    {"molecule": "FC(F)(F)c1nc2nc(Cl)c(Cl)nc2[nH]1", "values": [
      {"measurement": "T/C", "setting": "[5]", "value": "93 % of control"}
    ]}
  ]
}
